Laboratory results: the supplement of paper PMC7023306
± gives the uncertainty stated by the source.

Assay: TIMS collision cross section in N2 (TIMS CCS N2); higher = larger gas-phase ion size
Conditions: drift gas: N2 (99.4% N2, 0.6% O2), calibration: Stow et al. 2017 values for Agilent ESI-L Low Concentration Tune Mix, ionization: negative ESI
Method: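 Authentic plant natural product standards (10-50 ppm in 80% methanol) were analysed by UHPLC (BEH C18, 60 °C) coupled to a Bruker timsTOF Pro in negative ESI with N2 drift gas. TIMS collision cross sections were computed from mobility peak apices after calibration with Agilent Tune Mix using Stow et al. reference values. Values are the average of triplicate runs on different days, reported per annotated ion species (deprotonated ion, adducts, dimer, oxidized ion).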

SMILES | TIMS collision cross section in N2 (ion species: [M-H]-) | TIMS collision cross section in N2 (ion species: [2M-H]-) | TIMS collision cross section in N2 (ion species: [M-3H]-) | TIMS collision cross section in N2 (ion species: [M-H+Na+HCO2H]-)
O=C(/C=C/c1ccccc1)c1ccc(O)cc1O [2',4'-Dihydroxychalcone] | 158.57 ± 0.14 Å² |  |  | 
COc1ccc(C(=O)/C=C/c2ccccc2)c(O)c1 [2'-Hydroxy-4'-methoxychalcone] | 163.91 ± 0.055 Å² |  |  | 
COc1ccc(C=CC(=O)c2ccccc2O)cc1 [2'-Hydroxy-4-methoxychalcone] | 164.38 ± 0.046 Å² |  |  | 
O=c1cc(-c2ccccc2O)oc2ccccc12 [2'-Hydroxyflavone] | 149.95 ± 0.12 Å² |  |  | 
O=c1c(-c2ccc(O)c(O)c2)coc2cc(O)ccc12 [3',4',7-Trihydroxyisoflavone] | 161.78 ± 0.026 Å² | 217.7 ± 0.21 Å² | 155.92 ± 0.067 Å² | 
COc1ccc(C2CC(=O)c3ccc(O)cc3O2)cc1OC (stereo not given) [3',4'-Dimethoxy-7-hydroxyflavanone] | 180.72 ± 0.067 Å² | 241.38 ± 0.035 Å² |  | 
O=c1cc(-c2cccc(O)c2)oc2ccccc12 [3'-Hydroxyflavone] | 154.89 ± 0.41 Å² | 218.5 ± 0.57 Å² |  | 
COc1ccc(-c2cc3ccc(O)cc3oc2=O)cc1OC [3(3',4'-Dimethoxyphenyl)-7-hydroxycoumarin] | 172.02 ± 0.17 Å² | 276.72 ± 0.47 Å² |  | 
O=c1c(O)c(-c2cccc(O)c2O)oc2ccc(O)cc12 [3,6,2',3'-Tetrahydroxyflavone] | 161.7 ± 0.14 Å² |  | 161.13 ± 0.17 Å² | 

The next lines start with the values.

TIMS collision cross section in N2 (ion species: [M-H]-) | TIMS collision cross section in N2 (ion species: [2M-H]-) | TIMS collision cross section in N2 (ion species: [M-3H]-) | TIMS collision cross section in N2 (ion species: [M-H+Na+HCO2H]-) | SMILES
157.43 ± 0.095 Å² |  |  |  | Oc1cc(O)c2c(c1)OC(c1ccc(O)c(O)c1)C(O)C2 (single isomer, unassigned; (+)) [(+)-Catechin]
161.99 ± 0.064 Å² |  |  | 183.33 ± 0.05 Å² | O=c1c(O)c(-c2ccc(O)cc2O)oc2ccc(O)cc12 [3,6,2',4'-Tetrahydroxyflavone]
164.55 ± 0.2 Å² |  | 160.55 ± 0.095 Å² |  | O=c1c(O)c(-c2cc(O)c(O)c(O)c2)oc2cc(O)ccc12 [3,7,3',4',5'-Pentrahydroxyflavone (robinetin)]
154.57 ± 0.12 Å² |  | 160.22 ± 0.11 Å² |  | O=C1c2ccc(O)cc2O[C@H](c2ccc(O)c(O)c2)[C@H]1O [3,7,3',4'-Tetrahydroxyflavanone (fustin)]
300.86 ± 0.71 Å² |  |  |  | CC1(C)CCC2(C(=O)OC3OC(CO)C(O)C(O)C3O)CCC3(C)C(=CCC4C5(C)CC(O)C(OC6OC(CO)C(O)C(O)C6O)C(C)(C(=O)O)C5CCC43C)C2C1 (stereo not given) [3-Glc, 28-Glc medicagenic acid]
152.04 ± 0.28 Å² |  |  | 172.34 ± 0.36 Å² | O=c1c(O)c(-c2ccccc2)oc2ccccc12 [3-Hydroxyflavone]
151.91 ± 0.13 Å² |  |  |  | O=c1cc(-c2ccc(O)cc2)oc2ccccc12 [4'-Hydroxyflavone]
182.42 ± 0.24 Å² |  |  |  | COc1cc(OC)c(C(=O)C=Cc2ccc(O)cc2)c(OC)c1 [4-Hydroxy-2',4',6'-trimethoxychalcone (flavokawain A)]
156.4 ± 0.18 Å² | 244.46 ± 0.1 Å² |  |  | O=c1cc(-c2ccc(O)c(O)c2)oc2cccc(O)c12 [5,3',4'-Trihydroxyflavone]
176.56 ± 0.17 Å² |  | 179.11 ± 0.078 Å² | 192.04 ± 0.13 Å² | COc1ccc(C2CC(=O)c3c(ccc(O)c3O)O2)cc1OC (stereo not given) [5,6-dihydroxy-3',4'-dimethoxy-flavanone]
183.59 ± 0.17 Å² |  |  | 202.32 ± 0.32 Å² | COc1cc(-c2cc(=O)c3c(O)c(OC)c(O)cc3o2)cc(OC)c1O [5,7,4'-trihydroxy-6,3',5'-trimethoxyflavone]
174.1 ± 0.31 Å² |  |  |  | COc1cc(OC)c2c(c1)OC(c1ccc(O)cc1)CC2=O (stereo not given) [5,7-DIMETHOXY-4'-HYDROXYFLAVANONE]
